Read-outs that look alike come from different tables or passages of the source.
Experiments:
[1] = tested on: production and secretion of NGF on L-M cells; assay: Promoting action for the production and secretion of NGF on L-M cells of mouse (ELISA); format: cell-based; conditions: Mus musculus, 24 h, read-out: Ratio of NGF increase
Description: Catecholamines have also been found in a relatively high concentration to accelerate these functions without being mediated by adrenergic receptors [Y. Furukawa et al., J. Biol. Chem., 261, 6039-6047 (1986)].
The compound having a high activity in Table 1, that is, the catechol derivative having a n-alkyl group in the 3 or 4 position on the ring has been observed an acute cell toxicity in higher concentrations. The toxicity was considered the result of two hydroxyl groups in the catechol structure. Then the hydroxyl groups were esterified or etherified and the resulting derivative was examined the effect on the activity for the production and secretion of NGF.
The experiment was performed according to the procedures of Y. Furukawa et al. which is described in J. Bis Chem., 261, 6039-6047 (1986).
The medium was cultured for 3 days at a temperature of 37° C. After completing the confluency (about 10^6 cells/well), the medium was changed to Medium 199 (0.5 ml/well) containing 0.5% bovine serum albumin (Fraction V, a product of Armour Co.). The sample of the derivative is contained in the medium at a prescribed concentration as illustrated in the Tables.

[2] = tested on: production and secretion of NGF in brain astroglial cells; assay: Promoting activity for the production and secretion of NGF in brain astroglial cells of mouse (ELISA); conditions: 24 h
Protocol: The experiment was performed by inducing the astroglial cells from mouse forebrain to culture system according to the procedures of S. Furukawa et al. which is described in Biochem. Biophys. Res. Commun., 136, 57-63 (1986).
That is, forebrains of 8-day old mice were dissected out and cut into small pieces. […] Cells and cell clamps were recovered by centrifugation at 200 xg for 5 minutes. They were cultured in Dulbecco modified Eagle's medium (a product of Gibco Co. hereinafter abbreviated as DMEM) containing 10% of fetal calf serum, […] of penicillin, and 50 μg/ml of streptomycin, for 10 to 14 days with medium changes every 3 days. After completing confluency, the cells were dissociated by trypsin treatment and recultured in new culture flasks. This procedure was repeated further twice and more. […] The cells will hereinafter be referred to as astroglial cells.
Astroglial cells were innoculated in 24-well plates having a well surface area of 2.1 cm^2 (a product of Falcon Co.) at a cell density of about 3×10^4 cells/well and cultured for 3 days in DMEM . medium supplemented with 10% of fetal calf serum. After completing confluency about 10^7 cells/well), the medium was changed to DMEM medium (0.5 ml/well) supplemented with 0.5% of bovine serum albumin ((fraction V) and cultured for 3 days. The culture was further continued with medium changes every 3 days. After cells were practically synchronized in the quiscent stage, the medium was changed to 0.5 ml of the medium supplemented with 0.5% of bovine serum albumin and containing a prescribed concentration of test sample as illustrated in Tables. […] Data are expressed as fold increase in NGF content over that in the absence of the test sample. […] Data are presented as means ±SE of four determinations.

[3] = Acute toxicity (LD50); conditions: mouse, in vivo
Protocol: The catechol derivative having normal type saturated lower alkyl groups on the ring was administered by intravenous injection (i.v.), intraperitoneal injection (i.p.) or oral route (p.o.) to male ddy mice of 4-week old. The LD50 values (mg/kg) were measured by an ordinary method.

Q: Which fold induction at 30 µM [1] does the source give for `CCCc1ccc(O)c(O)c1` [R = Two H, R1 = H, R2 = n-Propyl, 4-n-propylcatechol] here?
A: 10.1 ± 1.14

Q: And the fold induction at 100 µM [1]?
A: 17.1 ± 2.7

Q: And the fold induction at 100 µM ([2]; read-out: Ratio of NGF increase, Table 3, 0.10 mM, 24 hours, mean ± SE of four determinations)?
A: 68.4 ± 3.24

Q: What about the fold induction at 250 µM ([2]; read-out: Ratio of NGF increase, Table 3, 0.25 mM, 24 hours, mean ± SE of four determinations) of the same compound?
A: 100 ± 11.2

Q: And the LD50 ([3]; ip, intraperitoneal injection, read-out: LD50 i.p.)?
A: > 500 mg/kg

Q: What about the LD50 ([3]; intravenous injection, read-out: LD50 i.v.) of the same compound?
A: > 150 mg/kg

Q: What about the LD50 ([3]; oral route, read-out: LD50 p.o.) of the same compound?
A: > 1500 mg/kg
